Reference: ChEMBL document CHEMBL5365473, “Novel Sulfonylurea-Based NLRP3 Inflammasome Inhibitor for Efficient Treatment of Nonalcoholic Steatohepatitis, Endotoxic Shock, and Colitis” (J Med Chem, 2023)

Target: NACHT, LRR and PYD domains-containing protein 3 (Mus musculus, UniProt Q8R4B8)
Assay: Inhibition of NLRP3 inflammasome in mouse […] cells assessed as inhibition of LPS/ATP-induced IL-1 beta secretion primed with LPS for 4.5 hs followed by incubation with compound for 30 mins and later stimulation with ATP for 30 mins by ELISA
Format: cell-based, J774.A1

Sequence of NACHT, LRR and PYD domains-containing protein 3 (Q8R4B8 whole entry, the tested form may be a part): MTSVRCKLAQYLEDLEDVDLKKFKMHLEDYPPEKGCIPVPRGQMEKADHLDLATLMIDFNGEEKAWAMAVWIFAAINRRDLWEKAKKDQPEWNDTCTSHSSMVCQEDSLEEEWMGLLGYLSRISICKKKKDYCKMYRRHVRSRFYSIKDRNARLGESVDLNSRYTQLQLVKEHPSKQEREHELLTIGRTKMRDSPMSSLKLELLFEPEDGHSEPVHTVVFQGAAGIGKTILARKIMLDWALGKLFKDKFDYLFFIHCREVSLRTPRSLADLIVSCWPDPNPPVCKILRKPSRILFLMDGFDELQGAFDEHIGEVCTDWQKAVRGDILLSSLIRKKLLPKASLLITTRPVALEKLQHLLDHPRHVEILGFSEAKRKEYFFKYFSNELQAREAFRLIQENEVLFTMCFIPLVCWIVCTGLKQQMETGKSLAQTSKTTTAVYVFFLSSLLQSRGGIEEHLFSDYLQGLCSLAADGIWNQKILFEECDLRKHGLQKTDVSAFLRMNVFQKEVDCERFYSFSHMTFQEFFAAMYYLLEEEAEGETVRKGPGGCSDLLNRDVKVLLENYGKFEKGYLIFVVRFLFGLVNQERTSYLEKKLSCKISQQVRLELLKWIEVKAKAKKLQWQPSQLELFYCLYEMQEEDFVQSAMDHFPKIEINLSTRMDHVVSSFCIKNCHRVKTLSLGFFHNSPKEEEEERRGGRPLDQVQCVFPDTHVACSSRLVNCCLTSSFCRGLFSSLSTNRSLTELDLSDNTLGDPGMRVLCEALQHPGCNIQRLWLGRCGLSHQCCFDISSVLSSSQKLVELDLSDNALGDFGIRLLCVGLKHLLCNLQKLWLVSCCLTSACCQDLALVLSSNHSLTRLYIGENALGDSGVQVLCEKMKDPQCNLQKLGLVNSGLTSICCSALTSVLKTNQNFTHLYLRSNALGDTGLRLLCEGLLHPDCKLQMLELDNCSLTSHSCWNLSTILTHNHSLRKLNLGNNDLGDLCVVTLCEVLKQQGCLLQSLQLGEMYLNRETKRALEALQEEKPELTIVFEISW

| Structure (SMILES) | IC50 |
| --- | --- |
| CN1CCN(Cc2ccc(S(=O)(=O)NC(=O)Nc3c4c(cc5c3CCC5)CCC4)cc2)CC1 | > 10000 nM |
| O=C(Nc1c2c(cc3c1CCC3)CCC2)NS(=O)(=O)c1ccc(CN2CCOCC2)cc1 | 3690 nM |
| CN(C)c1ccc(S(=O)(=O)NC(=O)Nc2c3c(cc4c2CCC4)CCC3)cc1 | > 10000 nM |
| CN(C)C(=O)c1cccc(S(=O)(=O)NC(=O)Nc2c3c(cc4c2CCC4)CCC3)c1 | 691 nM |
| COC1CN(Cc2cccc(S(=O)(=O)NC(=O)Nc3c4c(cc5c3CCC5)CCC4)c2)C1 | 5000 nM |
| CC(C)(C)OC(=O)Nc1ccc(-c2c3c(c(NC(=O)NS(=O)(=O)c4cc(C(C)(C)O)co4)c4c2CCC4)CCC3)cc1 | > 5000 nM |
| O=C(Nc1c2c(cc3c1CCC3)CCC2)NS(=O)(=O)c1ccc(CN2CCCCC2)cc1 | 1250 nM |
| CNC(=O)c1cccc(S(=O)(=O)NC(=O)Nc2c3c(cc4c2CCC4)CCC3)c1 | 3720 nM |
| CN(C)c1ccc(-c2c3c(c(NC(=O)NS(=O)(=O)c4cc(C(C)(C)O)co4)c4c2CCC4)CCC3)cc1 | > 5000 nM |

Further lines, results first:

| IC50 | Structure (SMILES) |
| --- | --- |
| 1730 nM | CCCCCN(C)Cc1ccc(S(=O)(=O)NC(=O)Nc2c3c(cc4c2CCC4)CCC3)cc1 |
| > 10000 nM | CCc1cccc(CC)c1NC(=O)NS(=O)(=O)c1ccc(CN(C)C)cc1 |
| 1480 nM | CN(C)Cc1ccc(S(=O)(=O)NC(=O)Nc2c(-c3ccccc3)cccc2-c2ccccc2)cc1 |
| 168 nM | CN(C)Cc1cccc(S(=O)(=O)NC(=O)Nc2c3c(cc4c2CCC4)CCC3)c1 |
| 63 nM | CCN(C)Cc1ccc(S(=O)(=O)NC(=O)Nc2c3c(cc4c2CCC4)CCC3)cc1 |
| 138 nM | CC(C)c1cccc(C(C)C)c1NC(=O)NS(=O)(=O)c1ccc(CN(C)C)cc1 |
| > 10000 nM | Cc1cccc(C)c1NC(=O)NS(=O)(=O)c1ccc(CN(C)C)cc1 |
